Results on one molecule are retold here after ChEMBL document CHEMBL5260850, “The exploration of aza-quinolines as hematopoietic prostaglandin D synthase (H-PGDS) inhibitors with low brain exposure” (Bioorg Med Chem, 2020).

The source made the active and inactive calls. No cut-off for these calls is given here.

Series [1] deals with Solute carrier organic anion transporter family member 1B1 (Homo sapiens, UniProt Q9Y6L6). Put plainly: Inhibition of OATP1B1 (unknown origin) upto 10000 nM. The settings on record: 10 µM.
Sequence of Solute carrier organic anion transporter family member 1B1 (Q9Y6L6 whole entry): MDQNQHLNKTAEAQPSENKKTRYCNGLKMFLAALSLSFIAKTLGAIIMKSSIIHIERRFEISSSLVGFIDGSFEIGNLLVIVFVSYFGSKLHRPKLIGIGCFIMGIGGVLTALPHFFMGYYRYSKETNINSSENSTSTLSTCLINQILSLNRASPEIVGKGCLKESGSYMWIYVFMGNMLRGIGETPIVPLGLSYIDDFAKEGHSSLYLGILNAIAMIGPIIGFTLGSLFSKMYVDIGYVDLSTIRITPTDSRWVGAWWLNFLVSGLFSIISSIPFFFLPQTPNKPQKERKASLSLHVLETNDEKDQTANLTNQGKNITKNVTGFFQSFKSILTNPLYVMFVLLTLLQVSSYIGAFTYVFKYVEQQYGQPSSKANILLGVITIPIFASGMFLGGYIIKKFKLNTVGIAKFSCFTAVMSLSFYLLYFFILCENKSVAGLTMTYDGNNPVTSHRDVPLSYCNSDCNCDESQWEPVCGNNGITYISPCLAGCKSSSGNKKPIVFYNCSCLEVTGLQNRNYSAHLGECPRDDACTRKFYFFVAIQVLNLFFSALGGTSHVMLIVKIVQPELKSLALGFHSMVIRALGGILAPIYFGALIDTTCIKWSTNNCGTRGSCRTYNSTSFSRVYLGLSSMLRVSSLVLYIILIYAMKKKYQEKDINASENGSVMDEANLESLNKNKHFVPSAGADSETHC
Series [2] deals with Muscarinic acetylcholine receptor M1 (Homo sapiens) (UniProt P11229). The settings on record: dose <= 10000.0 nM.
Sequence of Muscarinic acetylcholine receptor M1 (Homo sapiens) (P11229 whole entry): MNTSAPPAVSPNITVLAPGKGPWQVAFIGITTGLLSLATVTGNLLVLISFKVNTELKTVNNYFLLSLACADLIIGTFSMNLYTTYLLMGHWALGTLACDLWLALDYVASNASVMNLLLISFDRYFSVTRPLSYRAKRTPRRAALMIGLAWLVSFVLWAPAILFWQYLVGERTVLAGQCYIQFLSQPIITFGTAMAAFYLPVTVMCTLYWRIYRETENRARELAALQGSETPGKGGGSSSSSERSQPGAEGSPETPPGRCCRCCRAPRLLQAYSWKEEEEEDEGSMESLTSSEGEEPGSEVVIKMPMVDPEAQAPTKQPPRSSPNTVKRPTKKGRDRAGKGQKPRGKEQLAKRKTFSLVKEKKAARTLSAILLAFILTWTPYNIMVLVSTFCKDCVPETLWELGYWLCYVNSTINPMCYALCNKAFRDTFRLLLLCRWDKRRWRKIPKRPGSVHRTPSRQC
Description: Inhibition of muscarinic M1 receptor (unknown origin) upto 10000 nM
Series [3] in a line: Oral bioavailability in mouse at 3 mg/kg. Type of series: ADME, organism-based. The settings on record: in vivo.
Series [4] is described as follows: Toxicity in dog assessed as clinical pathological changes by measuring increase in hepatobiliary parameters at 75 mg/kg/day, po QD for 4 days. In kind it is organism-based, Canis lupus familiaris. The settings on record: in vivo, 96 h, time 4 day.

Regarding `CC(C)(O)[C@H]1CC[C@H](NC(=O)c2cnc3nc(C4CC4)ccc3c2)CC1`, in series [1], the “inhibition (INH)” value is given as “Not Active”. Moreover, in series [2], the inhibition entry is “inactive”. This molecule also gave a bioavailability in series [3] of 71%. For the same molecule, the Activity result in series [4] was “Toxic”.
